Key:
Akt1 = molecular target: T1, Akt1 (Homo sapiens, UniProt P31749); assay: Akt activation assay (PDK1-mediated activation, LANCE Ultra crosstide TR-FRET), Akt1; type: biochemical; settings: read-out: Biological Assay 1 IC50 (nM) Akt1
T1 construct: unspecified tag, removed (detagged) (cleaved yes); purchased SignalChem and Proteros (Akt1); Merck Millipore (PDK1) 14-452 (PDK1); none given for Akt1
Outline: (§1)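 Two-step cascade format: Akt1, Akt2 or Akt3 phosphorylates Ulight-crosstide (100 nM) only after activation by 5 nM PDK1 in presence of PtdIns(3,4,5)P3 vesicles and 100 μM ATP. Product quantified by Eu-antibody TR-FRET after 30 min reaction.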

Akt2 = molecular target: T2, Akt2 (Homo sapiens, UniProt P31751); assay: Akt activation assay (PDK1-mediated activation, LANCE Ultra crosstide TR-FRET), Akt2; type: biochemical; settings: read-out: Biological Assay 1 IC50 (nM) Akt2
T2 construct: unspecified tag, removed (detagged) (cleaved yes); purchased SignalChem and Proteros (Akt2); Merck Millipore (PDK1) 14-452 (PDK1); none given for Akt2
T2 sequence (P31751 whole entry): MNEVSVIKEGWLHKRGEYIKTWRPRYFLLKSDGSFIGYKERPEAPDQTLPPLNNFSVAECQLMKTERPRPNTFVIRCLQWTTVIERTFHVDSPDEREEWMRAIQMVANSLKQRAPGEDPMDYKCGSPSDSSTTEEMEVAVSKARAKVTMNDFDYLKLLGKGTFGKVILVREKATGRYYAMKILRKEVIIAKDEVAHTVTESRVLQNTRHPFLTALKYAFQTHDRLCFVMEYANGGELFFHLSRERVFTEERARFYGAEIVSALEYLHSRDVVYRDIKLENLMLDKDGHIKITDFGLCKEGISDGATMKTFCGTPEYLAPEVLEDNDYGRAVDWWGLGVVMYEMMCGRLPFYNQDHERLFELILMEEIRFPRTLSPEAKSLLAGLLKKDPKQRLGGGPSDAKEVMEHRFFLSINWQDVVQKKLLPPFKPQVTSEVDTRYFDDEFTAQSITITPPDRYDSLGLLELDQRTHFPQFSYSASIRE
Outline: as §1

Akt3 = molecular target: T3, Akt3 (Homo sapiens, UniProt Q9Y243); assay: Akt activation assay (PDK1-mediated activation, LANCE Ultra crosstide TR-FRET), Akt3; type: biochemical; settings: read-out: Biological Assay 1 IC50 (nM) Akt3
T3 construct: unspecified tag, removed (detagged) (cleaved yes); purchased SignalChem and Proteros (Akt3); Merck Millipore (PDK1) 14-452 (PDK1); none given for Akt3
T3 sequence (Q9Y243 whole entry): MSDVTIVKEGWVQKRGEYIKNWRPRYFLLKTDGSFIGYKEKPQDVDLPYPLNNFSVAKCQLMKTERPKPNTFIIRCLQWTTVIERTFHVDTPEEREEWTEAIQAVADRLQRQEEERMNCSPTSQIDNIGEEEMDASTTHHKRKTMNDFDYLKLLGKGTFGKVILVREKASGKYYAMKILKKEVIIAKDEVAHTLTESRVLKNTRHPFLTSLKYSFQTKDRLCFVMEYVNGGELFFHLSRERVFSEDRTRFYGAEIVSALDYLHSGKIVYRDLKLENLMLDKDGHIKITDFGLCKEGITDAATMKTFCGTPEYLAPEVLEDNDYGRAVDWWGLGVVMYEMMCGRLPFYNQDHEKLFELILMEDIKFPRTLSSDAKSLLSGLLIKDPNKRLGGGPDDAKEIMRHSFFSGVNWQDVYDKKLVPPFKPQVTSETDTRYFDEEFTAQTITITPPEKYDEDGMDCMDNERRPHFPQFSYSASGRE
Outline: as §1

p-Akt1 in LNCaP cells = molecular target: T4, p-Akt1 in LNCaP cells (Homo sapiens, UniProt P31749); assay: Phospho-Akt cellular SureFire assay, p-Akt1 in LNCaP cells; type: cell-based; settings: read-out: Biological Assay 2 IC50 (nM) Akt1 LNCaP
T4 construct: SureFire assays to detect cellular p-Akt1, p-Akt2 and p-Akt3 levels in WM115 cells (Akt2/3) and LNCaP cells (Akt1); endogenous in cells; host or cells: LNCaP (ECACC 89110211)
T4 sequence (P31749 whole entry): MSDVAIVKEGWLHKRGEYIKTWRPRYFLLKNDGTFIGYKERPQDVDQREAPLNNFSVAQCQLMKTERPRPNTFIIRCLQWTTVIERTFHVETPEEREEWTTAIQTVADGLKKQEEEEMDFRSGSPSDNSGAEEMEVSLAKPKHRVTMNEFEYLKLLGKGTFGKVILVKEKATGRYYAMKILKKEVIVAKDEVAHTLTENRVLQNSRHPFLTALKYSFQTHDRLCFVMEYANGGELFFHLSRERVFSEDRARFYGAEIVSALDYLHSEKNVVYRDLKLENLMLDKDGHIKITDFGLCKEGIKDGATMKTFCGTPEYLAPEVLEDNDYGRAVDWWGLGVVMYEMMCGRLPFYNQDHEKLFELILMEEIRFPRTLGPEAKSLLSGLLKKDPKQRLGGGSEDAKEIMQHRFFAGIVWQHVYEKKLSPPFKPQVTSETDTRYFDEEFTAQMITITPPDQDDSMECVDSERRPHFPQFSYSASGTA
Outline: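 Phospho-Thr308 Akt1 detected by AlphaScreen SureFire proximity beads in LNCaP lysates after 15 min compound treatment at 37 °C in 0.1% FBS medium, unstimulated, 0.3% DMSO. Cells plated at 5×10^4/well overnight; IC50 from a 4-parameter equation.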

p-Akt2 in WM115 cells = molecular target: T5, p-Akt2 in WM115 cells (Homo sapiens, UniProt P31751); assay: Phospho-Akt cellular SureFire assay, p-Akt2 in WM115 cells; type: cell-based; settings: insulin stimulated, read-out: Biological Assay 2 IC50 (nM) Akt2 WM115
T5 construct: SureFire assays to detect cellular p-Akt1, p-Akt2 and p-Akt3 levels in WM115 cells (Akt2/3) and LNCaP cells (Akt1); endogenous in cells; host or cells: WM115 (ECACC 91061232), insulin-stimulated
T5 sequence (P31751 whole entry): as the sequence (P31751 whole entry) above
Outline: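 Readout is a bead-proximity SureFire assay pairing a pThr308 Akt antibody with a total Akt2 antibody, lysate and beads incubated 2 h plus 2 h at room temperature in the dark. Before lysis, serum-starved WM115 cells received 100 nM insulin (10 min), then test compound (15 min, 0.3% DMSO); IC50 by 4-parameter equation.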

p-Akt3 in WM115 cells = molecular target: T6, p-Akt3 in WM115 cells (Homo sapiens, UniProt Q9Y243); assay: Phospho-Akt cellular SureFire assay, p-Akt3 in WM115 cells; type: cell-based; settings: insulin stimulated, read-out: Biological Assay 2 IC50 (nM) Akt3 WM115
T6 construct: SureFire assays to detect cellular p-Akt1, p-Akt2 and p-Akt3 levels in WM115 cells (Akt2/3) and LNCaP cells (Akt1); endogenous in cells; host or cells: WM115 (ECACC 91061232), insulin-stimulated
T6 sequence (Q9Y243 whole entry): as the sequence (Q9Y243 whole entry) above
Outline: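 pThr308-Akt3 in lysates was quantified by bead-proximity SureFire detection, pairing a phospho-specific antibody with a total Akt3 antibody. Before lysis, WM115 cells in 0.1% FBS medium were treated for 15 min at 37 °C with compound (final DMSO 0.3%), following a 10 min stimulation with 100 nM insulin. IC50 was obtained by 4-parameter fitting.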

T1 sequence (P31749 whole entry): as the sequence (P31749 whole entry) above

| IC50 (Akt1) [nM] | IC50 (Akt2) [nM] | IC50 (Akt3) [nM] | IC50 (p-Akt1 in LNCaP cells) [nM] | IC50 (p-Akt2 in WM115 cells) [nM] | IC50 (p-Akt3 in WM115 cells) [nM] | Compound |
| --- | --- | --- | --- | --- | --- | --- |
| > 23000 | 110 | 7 | 3300 | 440 | 5 | CCN(C(=O)C1CC1)[C@H]1CC[C@H](CC(=O)Nc2cc(-c3ccccc3)c(-c3ccc([C@]4(N)C[C@](C)(O)C4)cc3)nn2)CC1 [Example 114, N-(trans-4-(2-((6-(4-(trans-1-amino-3-hydroxy-3-methylcyclobutyl)phenyl)-5-phenylpyridazin-3-yl)amino)-2-oxoethyl)cyclohexyl)-N-ethylcyclopropanecarboxamide] |
| 5900 | 230 | 14 | 2000 | 810 | 30 | N[C@]1(c2ccc(-c3ncc(NC(=O)C[C@H]4CC[C@H](N5CCOC5=O)CC4)cc3-c3ccccc3)cc2)C[C@@H](F)C1 [Example 78, N-(6-(4-(trans-1-amino-3-fluorocyclobutyl)phenyl)-5-phenylpyridin-3-yl)-2-(trans-4-(2-oxooxazolidin-3-yl)cyclohexyl)acetamide] |
| 7200 | 150 | 5 | 9800 | 940 | 48 | NC1(c2ccc(-c3nnc(NC(=O)C[C@H]4CC[C@H](N5CCOC5=O)CC4)cc3-c3ccccc3)cc2)CCC1 [Example 66, N-(6-(4-(1-aminocyclobutyl)phenyl)-5-phenylpyridazin-3-yl)-2-(trans-4-(2-oxooxazolidin-3-yl)cyclohexyl)acetamide] |
| 6100 | 520 | 92 | > 10000 | 5000 | 180 | COC(=O)N(C)[C@H]1CC[C@H](C(F)C(=O)Nc2cnc(-c3ccc(C4(N)CCC4)cc3)c(-c3ccccc3)c2)CC1 (relative stereo) [Example 52, Methyl (trans-4-(2-((6-(4-(1-aminocyclobutyl)phenyl)-5-phenylpyridin-3-yl)amino)-1-fluoro-2-oxoethyl)cyclohexyl)(methyl)carbamate] |
| > 30000 | 2800 | 180 | > 30000 | 6600 | 210 | CC(C)(N)c1ccc(-c2cnc(NC(=O)C[C@H]3CC[C@H](N4CCOC4=O)CC3)cc2-c2ccccc2)cc1 [Example 64, N-(5-(4-(2-aminopropan-2-yl)phenyl)-4-phenylpyridin-2-yl)-2-(trans-4-(2-oxooxazolidin-3-yl)cyclohexyl)acetamide] |
| 9000 | 1900 | 560 | 7000 | 3000 | 92 | NC1(c2ccc(-c3ncc(NC(=O)C[C@H]4CC[C@H](N5CCOCC5)CC4)cc3-c3ccsc3)cc2)CCC1 [Example 38, N-(6-(4-(1-aminocyclobutyl)phenyl)-5-(thiophen-3-yl)pyridin-3-yl)-2-(trans-4-morpholinocyclohexyl)acetamide] |
| 2900 | 48 | 5 | 880 | 600 | 6 | CCOC(=O)N(C)[C@H]1CC[C@H](CC(=O)Nc2cnc(-c3ccc([C@]4(N)C[C@](C)(O)C4)cc3)c(-c3ccccc3)c2)CC1 [Example 97, Ethyl (4-(2-((6-(4-(trans-1-amino-3-hydroxy-3-methylcyclobutyl)phenyl)-5-phenylpyridin-3-yl)amino)-2-oxoethyl)cyclohexyl)(methyl)carbamate] |
| > 29000 | 6500 | 380 | > 15000 | 5200 | 150 | COC(=O)N(C)[C@H]1CC[C@H](CC(=O)Nc2cnc(-c3ccc(C(C)(C)N)cc3)c(-c3ccccc3)c2)CC1 [Example 34, methyl (trans-4-(2-((6-(4-(2-aminopropan-2-yl)phenyl)-5-phenylpyridin-3-yl)amino)-2-oxoethyl)cyclohexyl)(methyl)carbamate] |
| > 30000 | 3500 | 61 | > 30000 | 8700 | 340 | CC(C)(C)CC(=O)N[C@H]1CC[C@H](CC(=O)Nc2cnc(-c3ccc(C(C)(C)N)cc3)c(-c3ccccc3)c2)CC1 [Example A37, N-(trans-4-(2-((6-(4-(2-aminopropan-2-yl)phenyl)-5-phenylpyridin-3-yl)amino)-2-oxoethyl)cyclohexyl)-3,3-dimethylbutanamide] |
| > 30000 | > 24000 | 720 | > 30000 | > 21000 | 340 | CC(=O)N(C)[C@H]1CC[C@H](CC(=O)Nc2cnc(-c3ccc(C(C)(C)N)cc3)c(-c3ccsc3)c2)CC1 [Example 6, N-(6-(4-(2-aminopropan-2-yl)phenyl)-5-(thiophen-3-yl)pyridin-3-yl)-2-(trans-4-(N-methylacetamido)cyclohexyl)acetamide] |
| > 30000 | 1100 | 36 | > 30000 | > 28000 | 960 | COC(=O)N(C)[C@H]1CC[C@H](CC(=O)Nc2cc(-c3ccsc3)c(-c3ccc([C@]4(N)C[C@H](F)C4)cc3)nn2)CC1 [Example A70, Methyl (trans-4-(2-((6-(4-(trans-1-amino-3-fluorocyclobutyl)phenyl)-5-(thiophen-3-yl)pyridazin-3-yl)amino)-2-oxoethyl)cyclohexyl)(methyl)carbamate] |
| > 30000 | 540 | 22 | > 17000 | 12000 | 66 | CC(=O)N(C)[C@H]1CC[C@H](CC(=O)Nc2cc(-c3ccccc3)c(-c3ccc(C4(N)CC(F)(F)C4)cc3)nn2)CC1 [Example 73, N-(6-(4-(1-amino-3,3-difluorocyclobutyl)phenyl)-5-phenylpyridazin-3-yl)-2-(trans-4-(N-methylacetamido)cyclohexyl)acetamide] |
| 3900 | 320 | 10 | 2200 | 520 | 9 | CC(=O)N(C)[C@H]1CC[C@H](CC(=O)Nc2cc(-c3ccsc3)c(-c3ccc([C@]4(N)C[C@](C)(O)C4)cc3)cn2)CC1 [Example 93, N-(5-(4-(trans-1-amino-3-hydroxy-3-methylcyclobutyl)phenyl)-4-(thiophen-3-yl)pyridin-2-yl)-2-(trans-4-(N-methylacetamido)cyclohexyl)acetamide] |
| > 30000 | 6900 | 1300 | > 30000 | 14000 | 1100 | CC(=O)N[C@H]1CC[C@H](CC(=O)Nc2cnc(-c3ccc(C4(N)CCC4)cc3)c(-c3ccsc3C)c2)CC1 [Example 18, 2-(trans-4-acetamidocyclohexyl)-N-(6-(4-(1-aminocyclobutyl)phenyl)-5-(2-methylthiophen-3-yl)pyridin-3-yl)acetamide] |
| 7700 | 580 | 180 | > 22000 | 1100 | 21 | CC(=O)N[C@H]1CC[C@H](CC(=O)Nc2cnc(-c3ccc([C@]4(N)C[C@H](F)C4)cc3)c(-c3ccccc3)c2)CC1 [Example 15, 2-(trans-4-acetamidocyclohexyl)-N-(6-(4-(trans-1-amino-3-fluorocyclobutyl)phenyl)-5-phenylpyridin-3-yl)acetamide] |
| > 22000 | 460 | 10 | > 7500 | 1400 | 35 | CC(=O)N(C)[C@H]1CC[C@H](CC(=O)Nc2cc(-c3ccccc3)c(-c3ccc(C4(N)CC4)cc3)nn2)CC1 [Example 72, N-(6-(4-(1-aminocyclopropyl)phenyl)-5-phenylpyridazin-3-yl)-2-(trans-4-(N-methylacetamido)cyclohexyl)acetamide] |

Source: patent US10336702B2, “Pharmaceutically active compounds” (BERGENBIO ASA, priority 2015, dated 2019)
